Reference: patent US6337326B1, “N-aryl-(homopiperazinyl)-cyclohexyl amines” (American Home Products Corporation, priority 1999, dated 2002)
Structures can show the parent of a compound that is named as a salt.

Columns and labels:
Human 5-HT Transporter = target: T1, Human 5-HT Transporter (Homo sapiens, UniProt P31645); experiment: Inhibition of 3H-5-HT Uptake by cells Possessing the Human 5-HT Transporter (HC 5-HT Transporter); assay type: cell-based; conditions: Jar cells (human carcinoma) treated with staurosporine, 37° C., 5 min
T1 construct: endogenous in cells; host or cells: Jar cells (human carcinoma cell line), treated with staurosporine
T1 sequence (P31645 whole entry): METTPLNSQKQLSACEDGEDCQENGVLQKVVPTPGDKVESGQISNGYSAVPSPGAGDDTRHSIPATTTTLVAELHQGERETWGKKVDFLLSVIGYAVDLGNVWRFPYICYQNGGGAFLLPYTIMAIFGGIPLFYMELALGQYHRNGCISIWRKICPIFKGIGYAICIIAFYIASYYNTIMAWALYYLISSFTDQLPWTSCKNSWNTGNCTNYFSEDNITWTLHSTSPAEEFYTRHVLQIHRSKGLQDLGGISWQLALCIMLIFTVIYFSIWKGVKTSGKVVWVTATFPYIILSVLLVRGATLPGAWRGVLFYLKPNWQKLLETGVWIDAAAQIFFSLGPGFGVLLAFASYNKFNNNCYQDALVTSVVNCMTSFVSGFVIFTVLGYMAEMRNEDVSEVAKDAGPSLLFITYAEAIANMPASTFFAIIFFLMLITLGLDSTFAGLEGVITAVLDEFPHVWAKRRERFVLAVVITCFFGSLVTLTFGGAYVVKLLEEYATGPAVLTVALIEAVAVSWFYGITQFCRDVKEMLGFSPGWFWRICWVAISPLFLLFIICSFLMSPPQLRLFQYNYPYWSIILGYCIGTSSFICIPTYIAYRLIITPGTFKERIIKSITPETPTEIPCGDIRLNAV
Experimental: [Staurosporine greatly increases the expression of the 5-HT-transporter.] On the day of assay, vehicle, excess of fluoxetine, or test compound is added to various wells on the plate. All wells then receive ^3H-5-HT and are incubated at 37° C. for 5 min. The wells are then washed with ice cold 50 mM Tris HCl (pH 7.4) buffer and aspirated to remove free ^3H-5-HT. 25 μl of 0.25 M NaOH is then added to each well to lyse the cells and 75 μl scintillation cocktail (Microscint™ 20) added prior to quantitation on a Packard TopCount machine. Tubes with vehicle represent total possible uptake, radioactivity counted in tubes with fluoxetine represent nonspecific binding/uptake and is subtracted from the total possible uptake to give total possible specific uptake. This nonspecific binding (usual low in number) is then subtracted from the counts obtained in wells with various test compounds (or different concentrations of test drug) to give specific uptake in the presence of drug. Specific uptake is then expressed as a % of control values and is analyzed using nonlinear regression analysis (Prizm) to determine IC50 values. If the compound is active at inhibiting 5-HT uptake, its counts will be close to that obtained with fluoxetine.

5-HT transporter = target: T2, 5-HT transporter (Rattus norvegicus, UniProt P31652); experiment: Rat Brain 3H-Paroxetine Binding Assay (RB 5HT Transporter); conditions: frontal cortical membranes from male S.D. rats, 3H-paroxetine 0.1 nM, 60 min, 25° C.
T2 construct: from tissue; host or cells: frontal cortical membranes of male Sprague-Dawley rats
T2 sequence (P31652 whole entry): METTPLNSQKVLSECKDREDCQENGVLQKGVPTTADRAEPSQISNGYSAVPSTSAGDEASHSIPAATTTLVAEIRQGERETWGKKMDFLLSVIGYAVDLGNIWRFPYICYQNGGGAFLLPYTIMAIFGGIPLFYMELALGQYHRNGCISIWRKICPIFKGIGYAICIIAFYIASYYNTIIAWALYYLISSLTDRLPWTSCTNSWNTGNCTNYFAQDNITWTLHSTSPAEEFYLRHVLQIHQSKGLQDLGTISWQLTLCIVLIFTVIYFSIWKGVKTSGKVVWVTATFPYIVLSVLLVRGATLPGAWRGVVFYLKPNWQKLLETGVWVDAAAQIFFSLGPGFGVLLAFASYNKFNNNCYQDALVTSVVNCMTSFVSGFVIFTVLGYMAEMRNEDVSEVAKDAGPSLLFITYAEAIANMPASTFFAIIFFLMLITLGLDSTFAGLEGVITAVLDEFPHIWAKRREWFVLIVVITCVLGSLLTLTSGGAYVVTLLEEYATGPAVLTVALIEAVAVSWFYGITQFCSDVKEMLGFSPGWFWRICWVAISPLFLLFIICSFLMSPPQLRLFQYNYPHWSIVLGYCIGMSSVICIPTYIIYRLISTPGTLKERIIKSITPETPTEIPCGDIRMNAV
Experimental: Rat Brain ^3H-Paroxetine Binding Assay (RB 5HT Transporter)
The following assay was used to determine a compound's affinity of the 5-HT transporter.
A protocol similar to that used by Cheetham et. al. (Neuropharmacol. 1993, 32, 737) was used. Briefly, frontal cortical membranes prepared from male S.D. rats were incubated with ^3H-parxetine (0.1 nM) for 60 min. at 25° C. All tubes also contained either vehicle, test compound (one to eight concentrations), or a saturating concentration of fluoxetine (10 μM) to define […]. All reactions are terminated by the addition of ice cold Tris buffer followed by rapid filtration using a Tom Tech filtration device to separate bound from free ^3H-paroxetine. Bound radioactivity was quantitated using a Wallac 1205 Beta Plate® counter. Nonlinear regression analysis was used to determine IC50 values which were converted to Ki values using the method of Cheng and Prusoff (Biochem. Pharmacol. 1973, 22, 3099); [formula]

Compound | melting point [°C] | IC50 (Human 5-HT Transporter) [nM] | Ki (5-HT transporter) [nM]
COc1ccccc1N1CCCN(C2CCC(c3c[nH]c4ccccc34)CC2)CC1 (stereo not shown) (as salt: hydrochloride) [Example 1, 3-{4-[4-(2-Methoxy-phenyl)-[1,4]diazepan-1-yl]-cyclohexyl}-1H-indole] | 148 to 160 |  | 
c1cnc2c(N3CCCN(C4CCC(c5c[nH]c6ccccc56)CC4)CC3)cccc2c1 (stereo not shown) (as salt: hydrochloride) [Example 2, 8-{4-[4-(1H-Indol-3-yl)-cyclohexyl]-[1,4]diazepan-1-yl}-quinoline] | 152 to 165 |  | 
COc1ccccc1N1CCCN(C2CCC(c3c[nH]c4ccccc34)CC2)CC1 (stereo not shown) [Example 1, 3-{4-[4-(2-Methoxy-phenyl)-[1,4]diazepan-1-yl]-cyclohexyl}-1H-indole] |  | 578 | 42
c1cnc2c(N3CCCN(C4CCC(c5c[nH]c6ccccc56)CC4)CC3)cccc2c1 (stereo not shown) [Example 2, 8-{4-[4-(1H-Indol-3-yl)-cyclohexyl]-[1,4]diazepan-1-yl}-quinoline] |  | 399 | 9
COc1ccccc1N1CCCN(C2CCC(c3c[nH]c4ccc(F)cc34)CC2)CC1 (stereo not shown) [Example 3, 3-{4-[4-(2-Methoxy-phenyl)-[1,4]diazepan-1-yl]-cyclohexyl}-5-fluoro-1H-indole] |  | 1140 | 12
COc1ccccc1N1CCCN(C2CCC(c3c[nH]c4ccc(C#N)cc34)CC2)CC1 (stereo not shown) [Example 4] |  |  | 27
COc1ccccc1N1CCCN(C2CCC(c3c[nH]c4cc(F)ccc34)CC2)CC1 (stereo not shown) [Example 5, 3-{4-[4-(2-Methoxy-phenyl)-[1,4]diazepan-1-yl]-cyclohexyl}-6-fluoro-1H-indole] |  | 272 | 4.9
Fc1ccc2[nH]cc(C3CCC(N4CCCN(c5cccc6cccnc56)CC4)CC3)c2c1 (stereo not shown) [Example 6, 8-{4-[4-(5-Fluoro-1H-indol-3-yl)-cyclohexyl]-[1,4]diazepan-1-yl}-quinoline] |  | 602 | 9
N#Cc1ccc2[nH]cc(C3CCC(N4CCCN(c5cccc6cccnc56)CC4)CC3)c2c1 (stereo not shown) [Example 7, 8-{4-[4-(5-Cyano-1H-indol-3-yl)-cyclohexyl]-[1,4]diazepan-1-yl}-quinoline] |  |  | 11
Fc1ccc2c(C3CCC(N4CCCN(c5cccc6cccnc56)CC4)CC3)c[nH]c2c1 (stereo not shown) [Example 8, 8-{4-[4-(6-Fluoro-1H-indol-3-yl)-cyclohexyl]-[1,4]diazepan-1-yl}-quinoline] |  | 317 | 2.7
Fc1ccc2[nH]cc(C3CCC(N4CCCN(c5cccc(C(F)(F)F)c5)CC4)CC3)c2c1 (stereo not shown) [Example 9, 3-{4-[4-(3-Trifluoromethyl-phenyl)-[1,4]diazepan-1-yl]-cyclohexyl}-5-fluoro-1H-indole] |  | 4470 | 86
N#Cc1ccc2[nH]cc(C3CCC(N4CCCN(c5cccc(C(F)(F)F)c5)CC4)CC3)c2c1 (stereo not shown) [Example 10] |  | 3760 | 207
Fc1ccc2c(C3CCC(N4CCCN(c5cccc(C(F)(F)F)c5)CC4)CC3)c[nH]c2c1 (stereo not shown) [Example 11, 3-{4-[4-(3-Trifluoromethyl-phenyl)-[1,4]diazepan-1-yl]-cyclohexyl}-6-fluoro-1H-indole] |  | 1280 | 27
